Experimental data as given in patent US20040132817A1, “Use of an histone deacetylase inhibitor for the treatment of diseases associated with an hpv infection” (priority 2001, published 2004).

Columns and labels:
Format in all cases: cell-based, human
[1] = tested on: HeLa cells; experiment: Flow-cytometric cell cycle analysis of HeLa cells; details: 6 mM sodium butyrate, 16 hours
Experimental: “Contr.”: untreated control. The different phases of the cell cycle are indicated (G1, S, G2, respectively). Lower part: quantification of the number of cells during the cell cycle (means of three independent experiments).
Cells were harvested by trypsinisation, washed twice with phosphate-buffered saline (PBS) and fixed overnight with 70% ethanol. The cells were resuspended in PBS containing 40 μg/ml of DNase-free RNase A and 50 μg/ml propidium iodide and cell cycle distribution was measured in a fluorescence-activated cell sorter (FACSort) from Becton Dickinson, San Jose, USA. DNA content was quantified by using the “Cell Quest” software (Becton Dickinson, San Jose, USA).
In order to elucidate the molecular effects of histone deacetylase inhibition in the context of HPV16/18-induced carcinogenesis, the HPV18-positive cervical carcinoma cell line HeLa as well as primary human foreskin keratinocytes, which were separately immortalized with amphotropic retroviruses carrying the open reading frames of HPV16 E6, E7 or E6/E7 were used in the experiments of the present invention. In order to assess the specific impact of histone deacetylase inhibition on cell proliferation, flow cytometric analysis of cellular DNA content was carried out (FIG. 1). […]

[2] = tested on: cdk2 complex; experiment: Western blot analysis of cdk2 immunoprecipitates from "1321" and "1637" keratinocytes; details: "1321" and "1637" cells, 6 mM sodium butyrate, 16 hours
Experimental: (§1) (A) Upper panel: cdk2 complexes were immunoprecipitated and assayed for their activity using histone H1 as substrate. Lower panels: Western blot analysis of the cdk 2 complexes. Filters were incubated with specific antibodies against p21^CIP1 (=p21) and p27^KIP1 (=p27). Equal precipitation and loading was controlled by incubation with a cdk 2 antibody.
(§2) For cell fractionation, cell monolayers were washed twice with PBS and harvested by trypsinisation. Cell extract preparation and cdk2 activity assays were exactly done as described by Blomberg and Hoffmann, Mol. Cell. Biol. 19 (1999), 6183-6194. In addition, cdk2 was immunoprecipitated and analyzed by immunoblotting. Beads used for cdk2 kinase assay were washed 3 times with lysis buffer (Blomberg and Hoffmann, 1999), incubated with Laemmli sample buffer and boiled for 5 min. Supernatant was analyzed by SDS-PAGE gels. Immunoblotting was carried out with the following antibodies: p21^CIP1 (C24420) and p27^KIP1 (K25020; Transduction Laboratories) or HPV18-E7 (N-19; Santa Cruz, Inc.). Cdk2 specific antibodies or preimmune serum were kindly provided by I. Hoffmann (DKFZ, Heidelberg).

[3] = tested on: cdk2; experiment: Histone H1 kinase assay of cdk2 complexes from "1321" and "1637" keratinocytes; details: "1321" and "1637" cells, 6 mM sodium butyrate, 16 hours
Experimental: as §1, §2

CCCC(=O)[O-].[Na+] [sodium butyrate]
number of cells in S-phase ([1]; untreated 24.9%): 8.5% | G1 fraction ([1]; untreated 56.8%): 75.7% | p21^CIP1 and p27^KIP1 co-precipitated with cdk2 [2]: high amounts of co-precipitated | cdk2 kinase activity (histone H1) [3]: inability of cdk2 to phosphorylate histone H1
